Assay results taken from publication PMC7873226, “Molecular mechanism and structural basis of small-molecule modulation of the gating of acid-sensing ion channel 1” (Communications Biology, 2021).

Key:
rat ASIC1a [1] = target: T1, rat ASIC1a (Rattus norvegicus, UniProt P55926); experiment: Whole-cell patch clamp: inhibition of acid-induced current in CHO cells stably expressing rat ASIC1a; assay type: cell-based; conditions: 30 µM
T1 construct: expressed in transfected cells
T1 sequence (P55926 1-526): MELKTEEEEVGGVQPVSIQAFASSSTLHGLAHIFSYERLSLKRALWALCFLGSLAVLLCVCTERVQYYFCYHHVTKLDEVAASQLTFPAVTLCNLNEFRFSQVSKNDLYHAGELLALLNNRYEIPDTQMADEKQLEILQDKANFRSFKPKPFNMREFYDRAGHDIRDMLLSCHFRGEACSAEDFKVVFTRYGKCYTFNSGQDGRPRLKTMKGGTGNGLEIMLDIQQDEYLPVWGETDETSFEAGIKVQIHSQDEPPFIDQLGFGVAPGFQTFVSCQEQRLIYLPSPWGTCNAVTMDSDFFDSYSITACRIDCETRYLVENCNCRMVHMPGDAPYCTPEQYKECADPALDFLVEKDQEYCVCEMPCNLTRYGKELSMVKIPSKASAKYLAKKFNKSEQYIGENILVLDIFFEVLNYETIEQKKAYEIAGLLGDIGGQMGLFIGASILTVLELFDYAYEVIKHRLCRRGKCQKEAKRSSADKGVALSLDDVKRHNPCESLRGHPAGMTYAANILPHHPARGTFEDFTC
Protocol: (§1) Chinese Hamster Ovary (CHO) cells stably expressing rat ASIC1a were cultured in Ham’s F12, supplemented with 10% FBS, 1% penicillin–streptomycin and 500 µg/mL G418 and incubated at 37 °C with 5% CO2. Transient transfections of rASIC1a and cASIC1 wild-type or mutant channels in CHO cells were performed with Lipofectamine 3000 (Thermo Fisher Scientific) according to the manufacturer’s recommendations. The green fluorescent protein (GFP) cDNA (at 1/10 the amount of channel cDNA) was co-transfected with channel cDNA to aid the identification of transfected cells under the microscope in patch clamp experiments. All cDNAs were sequence verified.
(§2) Cells were freshly dissociated with CellStripper (Corning) and dispersed in a chamber on the stage of an inverted microscope. Upon formation of the whole-cell conformation, the cell was lifted from the bottom of the chamber and placed at the tip of a tubing perfusing an extracellular solution containing (in mM): 149 NaCl, 2 CaCl2, 4 KCl, 1 MgCl2, 5 glucose, 10 HEPES, pH 7.4, 310 mOsm/L. Extracellular solutions at more basic or acidic pHs were made by titrating the above pH 7.4 solution with NaOH or HCl (5 mM MES was added to solutions at pH 6.0 and lower). Pipette electrodes were filled with an intracellular solution containing (in mM): 135 KCl, 4 MgATP, 0.3 Na2GTP, 10 EGTA, and 20 HEPES, pH 7.2, 290 mOsm/L.
(§3) All recordings were performed at room temperature using an Axopatch 200B amplifier and pClamp 11 software (Molecular Devices). Currents were measured by whole-cell patch clamp, digitized at 10 kHz and lowpass filtered at 2 kHz. Series resistance was 75% compensated. Responses were elicited by rapid perfusion of acidic solutions using the SF-77B Fast-Step Perfusion device (Warner Instruments) for 40 ms once every 30 s (unless indicated otherwise) and recorded till steady state was reached. The holding potential was 0 mV unless indicated otherwise.
(§4) Baseline values (i.e., current amplitudes at the conditioning pH) were subtracted to obtain responses evoked by the test pH. Responses were normalized for each cell before averaging (see figure legends for more detail on normalization for each type of experiment). Concentration–response data were fitted to a logistic function of the form: R = (A1–A2)/(1 + (C/C0)^h)+A2, where R is the normalized response, C is either pH or compound concentration, C0 is the pH/concentration at which half-maximal response occurs (pH50 or IC50), h is the Hill coefficient, and A1 and A2 are constants. Kinetic parameters were obtained by fitting the data with either a single or double exponential function. Fitted data are shown as solid, dashed, or dotted curves.

rat ASIC1a [2] = target: T1, rat ASIC1a; experiment: pH dependence of steady-state desensitization (whole-cell patch clamp); assay type: cell-based; conditions: 10 nM PcTx1
Protocol: as §1, §2, §3, §4

block of pH 6.0-induced current (rat ASIC1a [1]; 0 mV) [%]	block of pH 6.0-induced current (rat ASIC1a [1]; −80 mV) [%]	Compound	pH50 of steady-state desensitization (rat ASIC1a [2])
62.3 ± 0.7	86.8 ± 1.2	N=C(N)NC(=O)c1nc(Cl)c(N)nc1N [amiloride, reference compound]	
		PcTx1 [reference compound]	7.81 ± 0.02
